Laboratory results: patent US20180289008A1, “METHODS FOR WILDFIRE CONTROL, INVASIVE PLANT CONTROL, AND RESIDUAL CONTROL OF INVASIVE PLANTS” (priority 2017, published 2018)

Legend:
[1] = system: invasive winter annual grass (downy brome, feral rye, Japanese brome); assay: Invasive winter annual grass field efficacy studies, biomass as percent of non-treated (Sites 1 and 2 combined); type: in vivo, Bromus tectorum, Secale cereale, Bromus japonicus; details: 1 YAT, across all five application timings, 73 and 102 g·ai·ha^−1; POST treatments with glyphosate
Description: In year 1, field experiments were conducted to compare the effectiveness of indaziflam and imazapic for long-term invasive winter annual grass control, and to evaluate the response of the native plant communities. The experiments were established at two sites on the Colorado Front Range dominated by invasive winter annual grasses. Site 1 (lat 40° 15′2″N, long 105° 12′56″W) was infested with equal amounts of downy brome and Japanese brome. Site 2 (lat 40° 43′23″N, long 104° 55′58″W) was infested with feral rye. These two sites were approximately 58 km apart. Site 1 was located on Rabbit Mountain Open Space (Boulder County). Site 2 was located on a Colorado Parks and Wildlife Area (Larimer County). Before herbicide application in July, visual estimates were made across the entire study area of percentage of living canopy cover for all species present at both sites.
Site 1 was characterized by ˜80-100% downy brome and Japanese brome canopy cover with a dense fine-fuel layer, e.g., thatch, (2 to 5 cm), and a scattered stand of co-occurring species (˜0-10% canopy cover, Table 4). […]
Biomass harvests and species richness evaluations were conducted in August (year 2 and year 3) to evaluate invasive winter annual grass control and response of co-occurring species. […] Additionally, at Site 1, species richness was calculated for each treatment as a simple estimate of biological diversity. […]

[2] = pH 7; cited from earlier work

In the case of `Cc1ccc2c(c1)[C@H](Nc1nc(N)nc(C(C)F)n1)[C@@H](C)C2` (mixture of isomers) [Indaziflam, N2-[(1R,2S)-2,3-dihydro-2,6-dimethyl-1H-inden-1-yl]-6-[(1RS)-1-fluoroethyl]-1,3,5-triazine-2,4-diamine], the “invasive winter annual grass control” value [1] is given as greater than 99% and the “Log Kow” value [2] is given as 2.8.
